This is an account of results in ChEMBL document CHEMBL1128852, “Butyrophenone analogues: Synthesis of 2-methyl-3-ethyl-5-aminoethyl-4,5,6,7-tetrahydroindol-4-ones, and their affinities for d1, d2 and 5-ht2a receptors” (Bioorg Med Chem Lett, 1995).

Assay [1] has as its target D(2) dopamine receptor (Rattus norvegicus, UniProt P61169). Kind of assay: Inhibition constant for in vitro inhibition of [3H]spiperone binding to striatal membranes Dopamine receptor D2.
Assay [2] addresses D(1A) dopamine receptor (Rattus norvegicus, UniProt P18901). Kind of assay: Inhibition constant for in vitro inhibition of [3H]-SCH- 23390 binding to striatal membranes Dopamine receptor D1. Details: species or system Striatum, Membrane.
For assay [3], the target named is 5-hydroxytryptamine receptor 2A (Rattus norvegicus, UniProt P14842). Put plainly: Inhibition constant for in vitro inhibition of [3H]ketanserin binding to rat frontal cortex membranes 5-hydroxytryptamine 2A receptor. The assay is classed as cell membranes, Membrane.
The species entered for assay [4] is Rattus norvegicus. Put plainly: (§1) Competitive antagonism against serotonin-induced contractions in rat aorta ring stripped of endothelium. The assay is classed as functional. The note with it: read-out: pA2 (converted).
The species named for assay [5] is Rattus norvegicus. The description is as §1. The note with it: read-out: pA2 (converted).

D(1A) dopamine receptor, sequence (P18901 whole entry): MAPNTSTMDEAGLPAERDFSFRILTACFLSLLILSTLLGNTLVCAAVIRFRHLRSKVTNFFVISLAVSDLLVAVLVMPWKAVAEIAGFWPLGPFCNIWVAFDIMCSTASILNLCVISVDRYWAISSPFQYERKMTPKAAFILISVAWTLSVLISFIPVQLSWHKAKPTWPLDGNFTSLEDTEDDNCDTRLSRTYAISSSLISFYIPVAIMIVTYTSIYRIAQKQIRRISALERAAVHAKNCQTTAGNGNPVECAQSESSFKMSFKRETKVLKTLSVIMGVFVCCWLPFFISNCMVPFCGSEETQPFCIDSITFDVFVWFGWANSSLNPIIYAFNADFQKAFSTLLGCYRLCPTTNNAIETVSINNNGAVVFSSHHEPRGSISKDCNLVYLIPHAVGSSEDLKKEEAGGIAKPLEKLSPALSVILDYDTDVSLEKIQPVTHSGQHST
D(2) dopamine receptor, sequence (P61169 whole entry): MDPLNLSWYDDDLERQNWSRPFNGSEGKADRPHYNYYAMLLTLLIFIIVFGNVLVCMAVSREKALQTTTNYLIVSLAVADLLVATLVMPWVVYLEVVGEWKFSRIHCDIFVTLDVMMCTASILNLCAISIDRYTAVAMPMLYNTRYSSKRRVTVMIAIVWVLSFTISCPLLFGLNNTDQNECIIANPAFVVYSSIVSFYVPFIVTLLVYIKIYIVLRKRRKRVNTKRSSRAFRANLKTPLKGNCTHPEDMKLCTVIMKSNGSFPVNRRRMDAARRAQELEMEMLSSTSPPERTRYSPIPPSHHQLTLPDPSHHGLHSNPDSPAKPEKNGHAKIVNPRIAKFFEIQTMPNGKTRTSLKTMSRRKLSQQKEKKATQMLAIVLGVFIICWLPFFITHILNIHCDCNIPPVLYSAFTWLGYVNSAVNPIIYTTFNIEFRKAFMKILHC
5-hydroxytryptamine receptor 2A, sequence (P14842 whole entry): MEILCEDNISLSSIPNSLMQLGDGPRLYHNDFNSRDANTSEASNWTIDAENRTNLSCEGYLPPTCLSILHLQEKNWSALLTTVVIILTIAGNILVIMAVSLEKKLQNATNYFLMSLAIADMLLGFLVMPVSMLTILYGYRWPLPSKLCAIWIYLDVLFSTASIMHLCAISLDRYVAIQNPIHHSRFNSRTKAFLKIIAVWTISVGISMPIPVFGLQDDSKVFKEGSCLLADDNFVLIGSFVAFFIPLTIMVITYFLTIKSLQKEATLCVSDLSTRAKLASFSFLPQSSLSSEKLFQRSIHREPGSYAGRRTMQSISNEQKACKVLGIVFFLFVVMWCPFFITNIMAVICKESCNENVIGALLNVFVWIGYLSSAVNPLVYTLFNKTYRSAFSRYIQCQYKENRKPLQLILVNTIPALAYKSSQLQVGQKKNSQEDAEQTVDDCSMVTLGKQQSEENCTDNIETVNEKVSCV

As to `CCc1c(C)[nH]c2c1C(=O)C(CCN1CCN(c3ccccc3OC)CC1)CC2` (centres undefined), the inhibition constant Ki in assay [1] was 28.2 nM; in assay [2], 1170 nM; in assay [3], 91.2 nM. Besides, the Kb in assay [4] was 31.6 nM.

Consider `CCc1c(C)[nH]c2c1C(=O)C(CN1CCOCC1)CC2` (centres undefined) [MOLINDONE], for which, in assay [2], the Ki is 1580 nM.

Regarding `CCc1c(C)[nH]c2c1C(=O)C(CCN1CCOCC1)CC2` (centres undefined), the Ki is 589 nM in assay [1], 2140 nM in assay [2] and 912 nM in assay [3]. The Kb in assay [5] was 105 nM.

As usually defined, the Ki is the dissociation constant of the complex between target and ligand, obtained from inhibition or displacement.
